This is an account of results in ChEMBL document CHEMBL4118026, “Limaol: A Polyketide from the Benthic Marine Dinoflagellate Prorocentrum lima” (J Nat Prod, 2017).

Common to all, as to type: functional, cell-based
One experiment relates to HepG2. Kind of experiment: Cytotoxicity against human HepG2 cells after 24 hrs by MTT assay. The conditions noted are these: HepG2, 24 h. A general note: Tetrazolium dyes change colour on reduction, which living cells bring about.
Another experiment has as its system HCT-116. Kind of experiment: Cytotoxicity against human HCT116 cells after 24 hrs by MTT assay. The conditions noted are these: HCT-116, 24 h.
Another experiment has as its system N2a. Kind of experiment: Cytotoxicity against mouse Neuro2a cells after 24 hrs by MTT assay.

For orientation: IC50 means the concentration that inhibits the measured activity by half. High values mean lower potency, low ones higher potency. Regarding `C=C1[C@@H](O)[C@@H]2O[C@]3(CC[C@H](/C=C/[C@@H](C)[C@@H]4CC(C)=C[C@@]5(O[C@H](C[C@@](C)(O)C(=O)O)CC[C@H]5O)O4)O3)CC[C@H]2O[C@@H]1[C@@H](O)C[C@H](C)[C@H]1O[C@@]2(CCCCO2)CC[C@H]1C` [OKADAIC ACID], the IC50 turned out to be 540 nM in the experiment with HepG2, 670 nM in the experiment with HCT-116 and 850 nM in the experiment on N2a.

For the compound `C=C(CC(=C)CC(=C)C[C@H]1CC(C)=C[C@@]2(C[C@@H](O)[C@H]3O[C@H](C[C@@H](O)CC(=C)C[C@H]4O[C@H](C/C=C/CCO)C[C@@H](O)[C@@H]4O)[C@H](O)[C@@H](O)[C@@H]3O2)O1)CC(=C)C[C@@H](C)C[C@@H](C)O`, the IC50 is 3700 nM in the experiment on HepG2, 7300 nM in the experiment on HCT-116 and 9600 nM with N2a.
